Measured values: ChEMBL document CHEMBL4052759, “Discovery of DS79182026: A potent orally active hepcidin production inhibitor” (Bioorg Med Chem Lett, 2017)

Key:
[1] = biological target: SRSF protein kinase 2 (Homo sapiens) (UniProt P78362); assay: Inhibition of SRPK2 (unknown origin) at 0.49 uM relative to control
[2] = biological target: Serine/threonine-protein kinase 24 (Homo sapiens) (UniProt Q9Y6E0); assay: Inhibition of MST3 (unknown origin) at 0.49 uM relative to control
[3] = biological target: MAP kinase-activated protein kinase 2 (Homo sapiens) (UniProt P49137); assay: Inhibition of MAPKAPK2 (unknown origin) at 0.49 uM relative to control
[4] = biological target: Tyrosine-protein kinase receptor UFO (Homo sapiens) (UniProt P30530); assay: Inhibition of AXL (unknown origin) at 0.49 uM relative to control
[5] = biological target: Mitogen-activated protein kinase 12 (Homo sapiens) (UniProt P53778); assay: Inhibition of p38-gamma (unknown origin) at 0.49 uM relative to control
[6] = biological target: Dual specificity tyrosine-phosphorylation-regulated kinase 1A (Homo sapiens) (UniProt Q13627); assay: Inhibition of DYRK1a (unknown origin) at 0.49 uM relative to control
[7] = biological target: Aurora kinase B (Homo sapiens) (UniProt Q96GD4); assay: Inhibition of AurB (unknown origin) at 0.49 uM relative to control
[8] = tested on: Tyrosine-protein kinase ABL1 (Homo sapiens), P00519 [Q252H]; assay: Inhibition of Abl Q252H mutant (unknown origin) at 0.49 uM relative to control
[9] = biological target: Tyrosine-protein kinase HCK (Homo sapiens) (UniProt P08631); assay: Inhibition of Hck (unknown origin) at 0.49 uM relative to control
[10] = biological target: Tyrosine-protein kinase ITK/TSK (Homo sapiens) (UniProt Q08881); assay: Inhibition of ITK (unknown origin) at 0.49 uM relative to control
Homo sapiens = organism: Homo sapiens; assay: Inhibition of PKA (unknown origin) at 0.49 uM relative to control
[11] = biological target: Dual specificity tyrosine-phosphorylation-regulated kinase 4 (Homo sapiens) (UniProt Q9NR20); assay: Inhibition of DYRK4 (unknown origin) at 0.49 uM relative to control
[12] = biological target: Ephrin type-B receptor 3 (Homo sapiens) (UniProt P54753); assay: Inhibition of EPHB3 (unknown origin) at 0.49 uM relative to control
[13] = biological target: Tyrosine-protein kinase ABL2 (Homo sapiens) (UniProt P42684); assay: Inhibition of Arg (unknown origin) at 0.49 uM relative to control
[14] = biological target: T1, Interleukin-1 receptor-associated kinase 4 (Homo sapiens) (UniProt Q9NWZ3); assay: Inhibition of IRAK4 (unknown origin) at 0.49 uM relative to control
T1 sequence (whole entry): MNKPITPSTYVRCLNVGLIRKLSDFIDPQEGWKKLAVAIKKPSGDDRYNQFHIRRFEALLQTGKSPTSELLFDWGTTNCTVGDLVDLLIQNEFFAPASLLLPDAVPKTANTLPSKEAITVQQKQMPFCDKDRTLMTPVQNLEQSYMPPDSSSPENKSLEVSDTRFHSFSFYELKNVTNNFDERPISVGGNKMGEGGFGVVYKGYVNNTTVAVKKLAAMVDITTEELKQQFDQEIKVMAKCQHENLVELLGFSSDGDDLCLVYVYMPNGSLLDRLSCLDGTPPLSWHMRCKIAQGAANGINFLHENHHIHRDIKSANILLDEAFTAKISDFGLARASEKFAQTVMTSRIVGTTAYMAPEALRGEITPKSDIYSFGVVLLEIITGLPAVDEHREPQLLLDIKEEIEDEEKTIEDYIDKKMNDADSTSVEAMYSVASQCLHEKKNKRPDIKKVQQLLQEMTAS

[15] = biological target: Tyrosine-protein kinase BTK (Homo sapiens) (UniProt Q06187); assay: Inhibition of BTK (unknown origin) at 0.45 uM relative to control
[16] = biological target: T2, cGMP-dependent protein kinase 1 (Homo sapiens) (UniProt Q13976); assay: Inhibition of PKG1-beta (unknown origin) at 0.45 uM relative to control
T2 sequence (whole entry): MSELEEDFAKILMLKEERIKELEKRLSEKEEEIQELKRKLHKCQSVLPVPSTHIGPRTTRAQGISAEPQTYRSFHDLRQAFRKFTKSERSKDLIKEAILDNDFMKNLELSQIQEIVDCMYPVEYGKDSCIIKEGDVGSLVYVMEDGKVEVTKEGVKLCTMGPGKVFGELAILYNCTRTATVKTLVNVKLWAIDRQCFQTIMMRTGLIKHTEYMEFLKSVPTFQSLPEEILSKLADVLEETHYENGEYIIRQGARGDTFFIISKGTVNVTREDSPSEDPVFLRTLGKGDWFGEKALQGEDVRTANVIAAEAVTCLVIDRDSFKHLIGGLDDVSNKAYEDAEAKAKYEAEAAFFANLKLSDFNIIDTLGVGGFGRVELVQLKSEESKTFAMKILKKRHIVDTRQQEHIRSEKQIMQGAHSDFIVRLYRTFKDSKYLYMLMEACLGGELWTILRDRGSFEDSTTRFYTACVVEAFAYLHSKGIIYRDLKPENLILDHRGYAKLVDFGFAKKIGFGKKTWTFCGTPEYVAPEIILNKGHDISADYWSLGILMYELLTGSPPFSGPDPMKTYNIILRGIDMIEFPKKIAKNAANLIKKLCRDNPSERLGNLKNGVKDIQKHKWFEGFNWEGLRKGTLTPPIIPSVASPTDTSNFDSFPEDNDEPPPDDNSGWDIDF

[17] = biological target: Ephrin type-B receptor 4 (Homo sapiens) (UniProt P54760); assay: Inhibition of EPHB4 (unknown origin) at 0.45 uM relative to control
[18] = biological target: Serine/threonine-protein kinase Nek9 (Homo sapiens) (UniProt Q8TD19); assay: Inhibition of NEK9 (unknown origin) at 0.45 uM relative to control
[19] = biological target: Maternal embryonic leucine zipper kinase (Homo sapiens) (UniProt Q14680); assay: Inhibition of MELK (unknown origin) at 0.45 uM relative to control
[20] = biological target: Dual specificity protein kinase CLK3 (Homo sapiens) (UniProt P49761); assay: Inhibition of CLK3 (unknown origin) at 0.45 uM relative to control
[21] = biological target: Ephrin type-A receptor 1 (Homo sapiens) (UniProt P21709); assay: Inhibition of EPHA1 (unknown origin) at 0.45 uM relative to control
[22] = biological target: Homeodomain-interacting protein kinase 3 (Homo sapiens) (UniProt Q9H422); assay: Inhibition of HIPK3 (unknown origin) at 0.45 uM relative to control
[23] = biological target: Ribosomal protein S6 kinase alpha-2 (Homo sapiens) (UniProt Q15349); assay: Inhibition of RSK3 (unknown origin) at 0.45 uM relative to control
[24] = biological target: Ephrin type-A receptor 4 (Homo sapiens) (UniProt P54764); assay: Inhibition of EPHA4 (unknown origin) at 0.45 uM relative to control
[25] = biological target: Serine/threonine-protein kinase Chk2 (Homo sapiens) (UniProt O96017); assay: Inhibition of CHK2 (unknown origin) at 0.45 uM relative to control

Chain of Serine/threonine-protein kinase 24 (Homo sapiens) (Q9Y6E0 whole entry, looked up): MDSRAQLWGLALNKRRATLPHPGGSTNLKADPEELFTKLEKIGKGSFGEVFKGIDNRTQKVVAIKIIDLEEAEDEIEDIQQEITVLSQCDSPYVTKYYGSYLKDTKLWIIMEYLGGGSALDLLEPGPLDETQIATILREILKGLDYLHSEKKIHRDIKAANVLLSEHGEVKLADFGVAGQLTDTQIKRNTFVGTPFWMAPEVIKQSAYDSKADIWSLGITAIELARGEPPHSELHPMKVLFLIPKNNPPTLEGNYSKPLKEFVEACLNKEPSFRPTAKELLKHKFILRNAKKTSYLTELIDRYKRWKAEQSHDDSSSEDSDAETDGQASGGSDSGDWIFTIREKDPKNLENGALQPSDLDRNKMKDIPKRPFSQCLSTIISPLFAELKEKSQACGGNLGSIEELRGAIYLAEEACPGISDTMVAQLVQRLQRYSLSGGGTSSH
Chain of Aurora kinase B (Homo sapiens) (Q96GD4 whole entry): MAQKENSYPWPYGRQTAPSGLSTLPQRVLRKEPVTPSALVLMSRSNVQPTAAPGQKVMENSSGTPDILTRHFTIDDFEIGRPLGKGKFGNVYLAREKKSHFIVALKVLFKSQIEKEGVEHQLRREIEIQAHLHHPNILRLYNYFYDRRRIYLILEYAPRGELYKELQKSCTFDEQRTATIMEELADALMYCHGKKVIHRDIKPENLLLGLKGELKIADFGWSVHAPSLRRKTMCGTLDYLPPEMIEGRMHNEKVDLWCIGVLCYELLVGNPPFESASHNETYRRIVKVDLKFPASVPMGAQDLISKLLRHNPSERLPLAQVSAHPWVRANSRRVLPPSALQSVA
Chain of Dual specificity protein kinase CLK3 (Homo sapiens) (P49761 whole entry, looked up): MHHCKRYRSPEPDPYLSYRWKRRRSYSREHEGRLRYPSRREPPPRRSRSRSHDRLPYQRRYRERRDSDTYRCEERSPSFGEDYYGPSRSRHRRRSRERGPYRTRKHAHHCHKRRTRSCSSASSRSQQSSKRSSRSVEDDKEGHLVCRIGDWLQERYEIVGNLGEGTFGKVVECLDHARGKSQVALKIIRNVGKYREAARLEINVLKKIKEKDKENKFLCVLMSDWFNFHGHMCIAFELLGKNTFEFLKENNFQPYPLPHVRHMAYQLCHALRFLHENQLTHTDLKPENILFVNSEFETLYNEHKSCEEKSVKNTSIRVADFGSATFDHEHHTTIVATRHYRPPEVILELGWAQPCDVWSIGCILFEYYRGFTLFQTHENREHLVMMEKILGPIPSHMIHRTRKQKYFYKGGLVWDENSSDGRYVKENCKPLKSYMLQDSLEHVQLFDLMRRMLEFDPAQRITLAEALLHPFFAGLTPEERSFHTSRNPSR
Chain of Serine/threonine-protein kinase Nek9 (Homo sapiens) (Q8TD19 whole entry): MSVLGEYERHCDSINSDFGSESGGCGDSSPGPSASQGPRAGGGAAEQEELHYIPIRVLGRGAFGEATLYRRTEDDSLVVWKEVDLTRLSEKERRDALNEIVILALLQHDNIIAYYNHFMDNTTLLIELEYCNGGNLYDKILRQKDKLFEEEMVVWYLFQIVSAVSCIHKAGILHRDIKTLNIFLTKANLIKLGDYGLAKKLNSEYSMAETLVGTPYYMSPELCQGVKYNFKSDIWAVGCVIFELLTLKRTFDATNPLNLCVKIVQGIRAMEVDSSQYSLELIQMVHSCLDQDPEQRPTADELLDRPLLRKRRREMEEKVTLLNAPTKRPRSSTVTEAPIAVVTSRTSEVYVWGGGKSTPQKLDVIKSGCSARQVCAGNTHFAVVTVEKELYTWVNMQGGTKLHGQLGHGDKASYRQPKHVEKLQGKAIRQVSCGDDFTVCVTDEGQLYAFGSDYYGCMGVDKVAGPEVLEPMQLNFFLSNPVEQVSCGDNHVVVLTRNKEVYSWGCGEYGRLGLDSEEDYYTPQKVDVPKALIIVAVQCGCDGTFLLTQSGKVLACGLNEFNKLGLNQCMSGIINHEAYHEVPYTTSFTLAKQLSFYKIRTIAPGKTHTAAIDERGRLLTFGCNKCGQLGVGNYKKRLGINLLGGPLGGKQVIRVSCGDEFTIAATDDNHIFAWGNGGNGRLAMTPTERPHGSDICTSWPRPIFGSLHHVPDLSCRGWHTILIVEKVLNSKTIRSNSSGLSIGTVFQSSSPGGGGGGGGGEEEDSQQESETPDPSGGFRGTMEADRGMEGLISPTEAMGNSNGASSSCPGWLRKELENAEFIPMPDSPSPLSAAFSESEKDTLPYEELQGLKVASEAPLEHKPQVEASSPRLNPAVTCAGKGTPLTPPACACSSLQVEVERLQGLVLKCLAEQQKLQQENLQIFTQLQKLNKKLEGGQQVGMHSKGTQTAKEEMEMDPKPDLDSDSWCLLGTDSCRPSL
Chain of Homeodomain-interacting protein kinase 3 (Homo sapiens) (Q9H422 whole entry, looked up): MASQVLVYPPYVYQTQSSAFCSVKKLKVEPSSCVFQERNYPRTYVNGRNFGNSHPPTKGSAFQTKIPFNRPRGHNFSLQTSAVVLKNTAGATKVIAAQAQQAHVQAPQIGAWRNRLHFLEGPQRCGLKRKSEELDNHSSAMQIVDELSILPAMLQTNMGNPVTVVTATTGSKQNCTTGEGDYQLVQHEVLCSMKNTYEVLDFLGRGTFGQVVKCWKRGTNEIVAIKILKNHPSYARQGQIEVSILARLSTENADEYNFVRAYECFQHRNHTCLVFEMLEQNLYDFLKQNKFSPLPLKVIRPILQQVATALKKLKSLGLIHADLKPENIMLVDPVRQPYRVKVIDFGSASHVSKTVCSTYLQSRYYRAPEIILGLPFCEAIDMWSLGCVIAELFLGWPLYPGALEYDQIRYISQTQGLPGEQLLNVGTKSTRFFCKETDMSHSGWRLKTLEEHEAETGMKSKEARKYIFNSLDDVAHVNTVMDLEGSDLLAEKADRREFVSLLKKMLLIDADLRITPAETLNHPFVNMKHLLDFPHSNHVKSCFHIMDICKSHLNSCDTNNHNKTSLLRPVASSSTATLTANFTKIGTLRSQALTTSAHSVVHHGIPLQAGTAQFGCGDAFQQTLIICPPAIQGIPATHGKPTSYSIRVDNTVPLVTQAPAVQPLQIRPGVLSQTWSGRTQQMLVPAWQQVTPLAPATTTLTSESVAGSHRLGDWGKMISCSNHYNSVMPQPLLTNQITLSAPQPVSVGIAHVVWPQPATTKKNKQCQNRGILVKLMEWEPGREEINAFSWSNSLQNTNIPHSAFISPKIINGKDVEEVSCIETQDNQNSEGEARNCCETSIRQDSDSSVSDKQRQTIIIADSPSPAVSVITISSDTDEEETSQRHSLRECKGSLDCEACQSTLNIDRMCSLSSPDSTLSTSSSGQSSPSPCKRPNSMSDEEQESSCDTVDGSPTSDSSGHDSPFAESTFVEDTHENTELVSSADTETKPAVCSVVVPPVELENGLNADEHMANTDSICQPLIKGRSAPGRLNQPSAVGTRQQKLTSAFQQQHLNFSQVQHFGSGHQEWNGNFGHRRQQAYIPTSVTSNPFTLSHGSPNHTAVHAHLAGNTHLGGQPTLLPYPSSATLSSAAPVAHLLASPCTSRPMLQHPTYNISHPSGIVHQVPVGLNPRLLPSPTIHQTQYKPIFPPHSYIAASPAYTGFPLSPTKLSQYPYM
Chain of Tyrosine-protein kinase BTK (Homo sapiens) (Q06187 whole entry): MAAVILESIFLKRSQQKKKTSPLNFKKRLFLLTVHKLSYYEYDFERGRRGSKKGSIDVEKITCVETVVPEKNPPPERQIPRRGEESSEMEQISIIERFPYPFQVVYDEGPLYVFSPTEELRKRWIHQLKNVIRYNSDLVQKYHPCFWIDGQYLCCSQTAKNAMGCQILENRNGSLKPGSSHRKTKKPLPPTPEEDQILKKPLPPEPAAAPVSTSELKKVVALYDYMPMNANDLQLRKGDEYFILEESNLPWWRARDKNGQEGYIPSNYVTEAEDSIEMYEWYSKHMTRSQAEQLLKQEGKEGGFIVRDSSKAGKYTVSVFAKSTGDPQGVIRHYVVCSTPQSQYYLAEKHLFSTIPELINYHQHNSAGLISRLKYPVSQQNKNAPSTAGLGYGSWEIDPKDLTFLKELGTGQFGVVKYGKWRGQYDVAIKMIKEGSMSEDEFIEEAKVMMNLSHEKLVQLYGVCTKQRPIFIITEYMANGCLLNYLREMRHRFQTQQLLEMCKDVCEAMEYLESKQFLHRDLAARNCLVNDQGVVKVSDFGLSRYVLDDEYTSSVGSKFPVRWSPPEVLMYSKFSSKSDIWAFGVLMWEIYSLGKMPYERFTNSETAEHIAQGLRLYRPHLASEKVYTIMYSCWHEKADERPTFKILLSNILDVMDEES
Chain of SRSF protein kinase 2 (Homo sapiens) (P78362 whole entry, looked up): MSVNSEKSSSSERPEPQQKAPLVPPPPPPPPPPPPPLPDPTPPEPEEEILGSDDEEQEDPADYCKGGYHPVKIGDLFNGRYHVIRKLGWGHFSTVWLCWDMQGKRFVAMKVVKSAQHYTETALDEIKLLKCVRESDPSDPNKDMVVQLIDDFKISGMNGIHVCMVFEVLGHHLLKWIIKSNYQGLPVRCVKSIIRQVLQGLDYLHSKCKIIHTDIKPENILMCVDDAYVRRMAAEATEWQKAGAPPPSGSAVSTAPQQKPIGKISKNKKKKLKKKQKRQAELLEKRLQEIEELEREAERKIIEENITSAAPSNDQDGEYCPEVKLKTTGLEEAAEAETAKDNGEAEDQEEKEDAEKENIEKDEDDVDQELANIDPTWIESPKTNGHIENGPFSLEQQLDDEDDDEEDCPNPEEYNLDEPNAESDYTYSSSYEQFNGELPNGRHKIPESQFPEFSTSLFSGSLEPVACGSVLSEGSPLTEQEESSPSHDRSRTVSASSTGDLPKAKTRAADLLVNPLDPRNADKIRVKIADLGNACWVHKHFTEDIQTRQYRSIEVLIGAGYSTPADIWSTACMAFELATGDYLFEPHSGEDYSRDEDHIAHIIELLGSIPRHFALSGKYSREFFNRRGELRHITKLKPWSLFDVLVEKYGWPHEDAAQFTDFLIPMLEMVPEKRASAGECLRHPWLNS

Cc1[nH]nc(C2CC2)c1-c1ccc2c(NC(=O)C3CC3)noc2c1
inhibition [1]: -2.3% | inhibition [2]: 2.3% | inhibition [3]: 2.7% | inhibition [4]: -0.3% | inhibition [5]: -2.3% | inhibition [6]: 4.7% | inhibition [7]: -6.3% | inhibition [8]: 30.3% | inhibition [9]: 3.3% | inhibition [10]: -1% | inhibition (Homo sapiens): 2.3% | inhibition [11]: 1.3% | inhibition [12]: 0.7% | inhibition [13]: 7.7% | inhibition [14]: 2%

Cc1n[nH]c(C)c1-c1ccc2c(NC(=O)c3ccc(N4CCN(C)CC4)cc3)n[nH]c2c1
inhibition [15]: 5% | inhibition [16]: 8% | inhibition [17]: 8% | inhibition [18]: 1.7% | inhibition [19]: 38% | inhibition [20]: 6.7% | inhibition [21]: 21% | inhibition [22]: 2.7% | inhibition [23]: 42.7% | inhibition [24]: 0.7% | inhibition [25]: 3%
